In patent US20250186386A1, “METHODS OF REDUCING THE NEED FOR PERIPHERAL ARTERIAL REVASCULARIZATION IN A STATIN-TREATED SUBJECT” (AMARIN PHARMACEUTICALS IRELAND LIMITED, priority 2018, published 2025):
Read-outs that look alike come from different tables or passages of the source.

Tests used:
[1] = REDUCE-IT: serious bleeding treatment-emergent adverse events (adverse events of special interest); type: in vivo, human; conditions: Safety population
Procedure: Adverse Events of Special Interest: Bleeding-related adverse events, glucose control (fasting blood glucose and HbA1c), and indicators of hepatic disorders (e.g., ALT or AST increases >3×ULN, total bilirubin increases of ≥2×ULN) were summarized separately and compared between treatment groups.
(§1) Analysis of Safety: All analyses of safety were conducted on the safety population, which was defined as all randomized patients. The safety assessment was based on the frequency of adverse events, physical exams, vital signs and safety laboratory tests. AEs with new onset during the study between the initiation of study drug and 30 days after the last dose of study drug for each patient was considered treatment-emergent (TEAEs). This included any AE with onset prior to initiation of study drug and increased severity after the treatment initiation.
This included overall incidence rates (regardless of severity and relationship to study drug), and incidence rates for moderate or severe adverse events. A summary of SAEs and adverse events leading to early discontinuation (for 30 days) were presented through data listings. Patients who restarted study drug were included in the summary of AEs leading to discontinuation. Safety laboratory tests and vital signs were summarized by post-treatment change from baseline for each of the parameters using descriptive statistics by treatment group. […]

[2] = test system: hypertriglyceridemic patients with cardiovascular disease or at high risk for cardiovascular disease, on statin therapy; type: in vivo, human
From the text: The following study, also referred to as the REDUCE-IT clinical trial, was a large cardiovascular (CV) outcome trial designed to assess CV risk reduction benefit of AMR101 treatment (commercially known as VASCEPA®) versus placebo on the 5-point primary composite endpoint: CV death, non-fatal stroke, non-fatal myocardial infarction (MI), coronary revascularizations, or unstable angina requiring hospitalization.
A multi-center, prospective, randomized, double-blind, placebo-controlled, parallel-group study was performed to evaluate the effect of AMR101 (4 g per day) on cardiovascular health and mortality in hypertriglyceridemic patients with cardiovascular disease or at high risk for cardiovascular disease. The intended expanded indication of the study was treatment with AMR101 as an add-on to statin therapy to reduce the risk of cardiovascular events in patients with clinical cardiovascular disease or with multiple risk factors for cardiovascular disease.
The primary objective of this study was, in patients at LDL-C goal while on statin therapy, with established cardiovascular disease (CVD) or at high risk for CVD, and hypertriglyceridemia (e.g., fasting triglycerides (TG)≥200 mg/dL and <500 mg/dL), to evaluate the effect of AMR101 4 g daily on time from randomization to first occurrence of any component of the composite of the following major CV events: CV death; nonfatal MI; (including silent MI; electrocardiograms (ECGs) were performed annually for the detection of silent MIs); nonfatal stroke; coronary revascularization; and unstable angina determined to be caused by myocardial ischemia by invasive/non-invasive testing and requiring emergent hospitalization.
The key secondary objective of this study was to evaluate the effect of AMR101 4 g daily on the time from randomization to the first occurrence of the composite of following major CV events: CV death, nonfatal MI (including silent MI), and nonfatal stroke.
Other secondary objectives for this study were to evaluate the effect of therapy on time from randomization to the first occurrence of the following individual or composite endpoints: composite of CV death or nonfatal MI (including silent MI); fatal or nonfatal MI (including silent MI); non-elective coronary revascularization represented as the composite of emergent or urgent classifications; CV death; unstable angina determined to be caused by myocardial ischemia by invasive/non-invasive testing and requiring emergent hospitalization; fatal or nonfatal stroke; composite of total mortality, nonfatal MI (including silent MI), or nonfatal stroke; and total mortality.
Primary Efficacy Endpoint: The primary efficacy endpoint was time from randomization to the first occurrence of the composite of the following clinical events: CV death; nonfatal MI (including silent MI; ECGs were performed annually for the detection of silent MIs); nonfatal stroke; coronary revascularization; and unstable angina determined to be caused by myocardial ischemia by invasive/non-invasive testing and requiring emergent hospitalization. The first occurrence of any of these major adverse vascular events during the follow-up period of the study were included in the incidence.
Secondary Efficacy Endpoints: The key secondary efficacy endpoint was the time from randomization to the first occurrence of the composite of CV death, nonfatal MI (including silent MI), or nonfatal stroke. […]

[3] = REDUCE-IT: treatment-emergent adverse events of the safety population
Procedure: Specification of Variables and Procedures: Safety assessments included adverse events, clinical laboratory measurements (chemistry, hematology), 12-lead ECGs, vital signs (systolic and diastolic blood pressure, heart rate, respiratory rate, and body temperature), weight, waist circumference, and physical examinations as per Study Procedures in Table 1. […] All laboratory test results were evaluated by the investigator as to their clinical significance. Any observations at physical examinations or laboratory values considered by the investigator to be clinically significant were considered an adverse event.
An adverse event can therefore be any unfavorable and/or unintended sign (including an abnormal laboratory finding), symptom, or disease temporally associated with the use of an investigational medication product, whether or not related to the investigational medication product. All adverse events, including observed or volunteered problems, complaints, or symptoms, were recorded on the appropriate CRF. Each adverse event was evaluated for duration, intensity, and causal relationship with the study medication or other factors.
Serious Adverse Events: A serious adverse event (SAE) is defined as an adverse event that meets any of the following criteria: • Results in death; • Is life-threatening—The term “life-threatening” in the definition of “serious” refers to an event in which the patient was at risk of death at the time of the event. […] Important medical events that may not result in death, be life threatening, or require hospitalization were considered an SAE when, based upon appropriate medical judgment, they may have jeopardized the patient and may have required medical or surgical intervention to prevent one of the outcomes listed above.
as §1
This included overall incidence rates (regardless of severity and relationship to study drug), and incidence rates for moderate or severe adverse events. A summary of SAEs and adverse events leading to early discontinuation (for 30 days) were presented through data listings. Patients who restarted study drug were included in the summary of AEs leading to discontinuation. Safety laboratory tests and vital signs were summarized by post-treatment change from baseline for each of the parameters using descriptive statistics by treatment group. Those patients with significant laboratory abnormalities were identified in data listings. Additional safety parameters were summarized in data listings.
In addition to the treatment-emergent adverse events analyses, analyses on all AEs (serious and non-serious) and all serious AEs were performed.

[4] = test system: Lipid, lipoprotein, and inflammatory markers (TG, non-HDL-C, LDL-C, HDL-C, Apo B, hsCRP); assay: REDUCE-IT: fasting lipid profile and biomarker assays (lipid, lipoprotein, and inflammatory markers) over time; type: in vivo, human
Procedure: Fasting Lipid Profile: The fasting lipid panel included: TG, TC, LDL-C, HDL-C, non-HDL-C, and VLDL-C. At all visits, LDL-C was calculated using the Friedewald equation. At Visit 1 and Visit 1.1 direct LDL-C were used if at the same visit TG>400 mg/dL (4.52 mmol/L). These LDL-C values were used for the evaluation of the LDL-C inclusion criterion (LDL-C qualifying measurements for randomization) and for the assessment of changes in the statin therapy when LDL-C was not at goal. […] In addition, irrespective of the TG levels, at Visit 2 (0 Months of Follow-up, baseline) and at Visit 4 (12 Months of Follow-up), LDL-C were measured by preparative ultracentrifugation. These preparative ultracentrifugation LDL-C measurements were used in the statistical analysis including the calculation of the percent change from baseline (1 year versus baseline). Hopkins LDL-C was calculated for each visit.
Biomarkers Assays: The biomarker assays included: hsCRP, Apo B and hsTnT.
The fasting lipid panel was tested at Screening (Visit 1 or Visit 1.1), Randomization visit (Visit 2; Day 0), Visit 3 (Day 120; ˜4 Months) and all other follow-up visits including the last visit. For change from baseline to 1 year preparative ultracentrifugation measurements for LDL-C were analyzed, unless this value was missing. If the LDL-C preparative ultracentrifugation values were missing, then another LDL-C value was used, with prioritization of values obtained from LDL-C Direct measurements, followed by LDL-C derived by the Friedewald calculation (only for subjects with TG<400 mg/dL), and finally LDL-C derived using the calculation published by Hopkins University investigators (Martin S S, Blaha M J, Elshazly M B, et al. Comparison of a novel method vs the Friedewald equation for estimating low-density lipoprotein cholesterol levels from the standard lipid profile. JAMA. 2013; 310:2061-8). In addition, change from baseline to day 120 in LDL-C utilizing Friedewald's and Hopkins methods was analyzed, using the arithmetic mean of LDL-C obtained at Visit 2 (Day 0) and the preceding Visit 1 (or Visit 1.1). If one of these values was missing, the single available LDL-C value was used. LDL-C according to Hopkins was calculated at each visit.
The randomization visit was considered Baseline. If a baseline value was not available from the randomization visit, then the latest screening value was used. For measurements of lipids, lipoproteins and inflammatory markers, the change and the percent change were summarized at each visit. Since these biomarkers are typically not normally distributed, the Wilcoxon rank-sum test was used for treatment comparisons of the percent change from baseline, and medians and quartiles were provided for each treatment group. The medians of the differences between the treatment groups and 95% CIs were estimated with the Hodges-Lehmann method. In addition, shift-tables were generated as appropriate.

SMILES: CC/C=C\C/C=C\C/C=C\C/C=C\C/C=C\CCCC(=O)OCC [AMR101, icosapent ethyl]
- Serious gastrointestinal bleeding, rate [1]: 1.5%
- Key secondary composite endpoint absolute between-group difference in the rate of the endpoint ([2]; 2 g twice daily vs placebo): 3.6 percentage points
- Primary composite endpoint absolute between-group difference in the rate of the endpoint ([2]; 2 g twice daily vs placebo): 4.8 percentage points
- Cardiovascular death, % of patients ([2]; 4 g daily, ITT): 4.3%
- Total mortality, % of patients ([2]; 4 g daily, ITT): 6.7%
- Amputation for PVD (%) ([2]; ITT): (0.5%)
- Cardiac Arrest (%) ([2]; ITT): (0.5%)
- Cardiac Arrhythmias Requiring Hospitalization of ≥24 Hours (%) ([2]; ITT): (4.6%)
- Carotid Revascularization (%) ([2]; ITT): (0.8%)
- Coronary Revascularization (%) ([2]; ITT): (9.2%)
- Elective Revascularization (%) ([2]; ITT): (4.7%)
- Emergent Revascularization (%) ([2]; ITT): (1.0%)
- Hemorrhagic Stroke (%) ([2]; ITT): 0.3%
- Ischemic Stroke (%) ([2]; ITT): (2.0%)
- New Heart Failure (%) ([2]; ITT): 4.1%
- New Heart Failure Requiring Hospitalization (%) ([2]; ITT): (3.4%)
- Salvage Revascularization (%) ([2]; ITT): (0.0%)
- Sudden Cardiac Death (%) ([2]; ITT): (1.5%)
- Transient Ischemic Attack (%) ([2]; ITT): (1.6%)
- Urgent Revascularization (%) ([2]; ITT): (4.4%)
- Hemorrhagic Stroke (%) ([2]; ITT, listed as Icosapent Ethyl): (0.3%)
- New Heart Failure (%) ([2]; ITT, listed as Icosapent Ethyl): (4.1%)
- Atrial fibrillation or flutter requiring hospitalization (adjudicated tertiary endpoint), % of patients ([2]; human, in vivo): 3.1%
- New Onset of Diabetes (%) ([2]; patients with diabetes at baseline excluded): (3.8%)
- Composite of cardiovascular death or nonfatal myocardial infarction RRR ([2]; vs placebo, 4 g per day): 25%
- Composite of total mortality, nonfatal myocardial infarction, or nonfatal stroke reduction (RRR) ([2]; vs placebo, 4 g per day): 23%
- Key secondary composite endpoint relative risk reduction (RRR) ([2]; vs placebo, 4 g per day): 26%
- Primary composite endpoint relative risk reduction (RRR) ([2]; vs placebo, 4 g per day): 25%
- Reduction in heart attack ([2]; vs placebo, 4 g per day): 31%
- Total mortality reduction (RRR) ([2]; vs placebo, 4 g per day): 13%
- Total mortality HR ([2]; vs placebo, ITT): 0.87
- Primary composite endpoint number needed to treat (NNT) ([2]; vs placebo, median follow up 4.9 years): 21
- Pneumonia (serious adverse event), rate ([3]; Safety population): 2.6%
- Rate of anemia (adverse event) ([3]; Safety population): 4.7%
- Rate of atrial fibrillation (adverse event) ([3]; Safety population): 5.3%
- Rate of diarrhea (adverse event) ([3]; Safety population): 9%
- Rate of gastrointestinal adverse events ([3]; Safety population): 33.0%
- Rate of peripheral edema (adverse event) ([3]; Safety population): 6.5%
- Serious TEAE Leading to Death, % ([3]; […]): (2.3%)
- Serious TEAE, % ([3]; […]): (30.6%)
- Subjects with at Least One TEAE, % ([3]; […]): (81.8%)
- HDL-C Median Year 1 ([4]; Year 1, Table 18): 39.0 mg/dL
- LDL-C Median Year 1 ([4]; Year 1, Table 18): 77.0 mg/dL
- Non-HDL-C Median Year 1 ([4]; Year 1, Table 18): 113.0 mg/dL
- Triglycerides Median Year 1 ([4]; Year 1, Table 18): 175.0 mg/dL
- Triglycerides: median reduction from baseline greater than in the placebo group (Hodges-Lehmann) ([4]; baseline to one year, vs placebo): 19.7%
- HDL-C Median Between Group Difference at Year 1, % Change from Baseline ([4]; vs placebo, Table 18): −6.3%
- HDL-C Median Between Group Difference at Year 1, Absolute Change from Baseline ([4]; vs placebo, Table 18): -2.5 mg/dL
- LDL-C Median Between Group Difference at Year 1, % Change from Baseline ([4]; vs placebo, Table 18): −6.6%
- LDL-C Median Between Group Difference at Year 1, Absolute Change from Baseline ([4]; vs placebo, Table 18): -5.0 mg/dL
- Non-HDL-C Median Between Group Difference at Year 1, Absolute Change from Baseline ([4]; vs placebo, Table 18): -15.5 mg/dL
- Triglycerides Median Between Group Difference at Year 1, % Change from Baseline ([4]; vs placebo, Table 18): −19.7%
- Triglycerides Median Between Group Difference at Year 1, Absolute Change from Baseline ([4]; vs placebo, Table 18): -44.5 mg/dL
